This experiment has as its target T1, DPP-IV (Homo sapiens, UniProt P27487).
T1 construct: purchased Enzyme Systems Products SPE-01
As to the kind of experiment: In vitro assay for dipeptidyl peptidase inhibition. It is filed as biochemical. The settings on record: hydrochloride salts, Gly-Pro-4-methoxy B naphthylamide substrate, overnight at 37° C. The procedure:
150 μL of an enzyme-substrate solution was pipetted into microtiter wells of a polystyrene 96-well plate, and maintained at 4° C. The enzyme-substrate solution comprised 50 μM Gly-Pro-4-methoxy B naphthylamide HCl in 50 mM Tris assay buffer pH 7.3 containing 0.1M sodium chloride, 0.1% (v/v) Triton and 50 μU/mL DPP-IV (Enzyme Systems Products Cat#SPE-01, DPP-IV 5 mU/mL stock). 5 μL/well of compounds of Formula (I) were added, bringing the final compound of Formula (I) concentrations to 3 μM-10 nM per well.
Controls. Enzyme was omitted from four (4) wells, as a reagent blank. 5 μL of 3 mM Diprotin A was added to four wells as a positive quality control, providing a final Diprotin A concentration of 100 μM. To measure total enzyme activity (i.e. a negative control), without the influence of any compounds of Formula (I), 5 μL of distilled water was added to four wells.
The entire assay was incubated overnight (about 14-18 hours) at 37° C.

Where [1] appears, read: read-out: IC50 (concentration of test compound required for 50% inhibition).

Where two headings read alike, the source gives them in different places.

T1 sequence (P27487 whole entry, species assumed): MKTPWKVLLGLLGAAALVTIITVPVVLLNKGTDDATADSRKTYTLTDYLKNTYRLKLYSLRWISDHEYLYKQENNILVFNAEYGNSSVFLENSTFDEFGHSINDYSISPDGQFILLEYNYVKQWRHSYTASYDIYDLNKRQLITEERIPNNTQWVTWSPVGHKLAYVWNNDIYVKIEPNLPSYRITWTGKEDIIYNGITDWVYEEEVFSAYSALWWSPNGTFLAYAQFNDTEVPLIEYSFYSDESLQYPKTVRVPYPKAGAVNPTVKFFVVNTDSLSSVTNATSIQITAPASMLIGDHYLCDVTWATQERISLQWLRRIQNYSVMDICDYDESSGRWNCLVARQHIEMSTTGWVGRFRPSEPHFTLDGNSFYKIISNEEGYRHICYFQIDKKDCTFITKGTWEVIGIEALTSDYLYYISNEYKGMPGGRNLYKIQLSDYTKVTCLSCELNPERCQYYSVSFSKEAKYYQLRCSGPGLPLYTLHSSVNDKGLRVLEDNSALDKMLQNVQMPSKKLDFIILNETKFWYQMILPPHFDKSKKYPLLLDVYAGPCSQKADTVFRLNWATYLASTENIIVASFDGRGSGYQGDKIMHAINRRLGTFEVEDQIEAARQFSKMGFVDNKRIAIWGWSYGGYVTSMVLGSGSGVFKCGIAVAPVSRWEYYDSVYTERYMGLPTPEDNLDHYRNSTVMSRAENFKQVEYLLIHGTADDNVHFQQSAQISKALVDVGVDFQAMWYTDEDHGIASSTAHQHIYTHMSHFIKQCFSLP

On to `N[C@H](C(=O)N1CCCC1)[C@H]1CC[C@H](N2Cc3ccccc3S2(=O)=O)CC1` [Example 50, (2S)-2-amino-2-[trans-4-(1,1-dioxo-1,3-dihydro-1λ^6-benzo[d]isothiazol-2-yl)-cyclohexyl]-1-pyrrolidin-1-yl-ethanone], for which the IC50 under setting [1] is not above 100 nM. The same measure, in the same setting: next, `N[C@H](C(=O)N1CC[C@@H](F)C1)[C@H]1CC[C@H](NC(=O)c2cccc(O)n2)CC1` [Example 52, 6-hydroxy-pyridine-2-carboxylic acid {trans-4-[(1S)-1-amino-2-((3R)-3-fluoro-pyrrolidin-1-yl)-2-oxo-ethyl]-cyclohexyl}-amide]: not above 100 nM. Same read-out and setting: next, `N[C@H](C(=O)N1CCCC1)[C@H]1CC[C@H](N2Cc3sccc3C2=O)CC1` [Example 41, 5-[trans-4-((1S)-1-amino-2-oxo-2-pyrrolidin-1-yl-ethyl)-cyclohexyl]-5,6-dihydro-thieno[2,3-c]pyrrol-4-one]: not above 100 nM. Take `CN(CC(=O)N[C@H]1CC[C@H]([C@H](N)C(=O)N2CCC(F)(F)C2)CC1)C(=O)Oc1ccccc1` [Example 33, ({trans-4-[(1S)-1-amino-2-(3,3-difluoro-pyrrolidin-1-yl)-2-oxo-ethyl]-cyclohexylcarbamoyl}-methyl)-methyl-carbamic acid phenyl ester]: the IC50 (IC50 (concentration of test compound required for 50% inhibition)) was not above 100 nM.

`N[C@H](C(=O)N1CCCC1)[C@H]1CC[C@H](NC(=O)[C@@H]2COCN2C(=O)OCc2ccccc2)CC1` [Example 11, (4S)-4-[trans-4-((1S)-1-amino-2-oxo-2-pyrrolidin-1-yl-ethyl)-cyclohexylcarbamoyl]-oxazolidine-3-carboxylic acid benzyl ester]: the IC50 under setting [1] was not above 100 nM. Still for that read-out and setting: next, `CN(CC(=O)N[C@H]1CC[C@H]([C@H](N)C(=O)N2CCCC2)CC1)C(=O)OCc1ccccc1` [Example 34, (S)-{[trans-4-(1-amino-2-oxo-2-pyrrolidin-1-yl-ethyl)-cyclohexylcarbamoyl]-methyl}-methyl-carbamic acid benzyl ester]: 100 to 500 nM; `N[C@H](C(=O)N1CCCC1)[C@H]1CC[C@H](NC(=O)[C@H]2CCC(=O)N2C(=O)OCc2ccccc2)CC1` [Example 15, (2R)-2-[trans-4-(1-(S)-amino-2-oxo-2-pyrrolidin-1-yl-ethyl)-cyclohexylcarbamoyl]-5-oxo-pyrrolidine-1-carboxylic acid benzyl ester]: not above 100 nM; `N[C@H](C(=O)N1CCCC1)[C@H]1CC[C@H](NC(=O)C[C@H]2C(=O)OCN2C(=O)OCc2ccccc2)CC1` [Example 13, (4S)-4-{[trans-4-((1S)-1-amino-2-oxo-2-pyrrolidin-1-yl-ethyl)-cyclohexylcarbamoyl]-methyl}-5-oxo-oxazolidine-3-carboxylic acid benzyl ester]: not above 100 nM. Still for that read-out and setting: next, `N[C@H](C(=O)N1CCSC1)[C@H]1CC[C@H](N2Cc3ncccc3C2=O)CC1` [Example 43, 6-[trans-4-((1S)-1-amino-2-oxo-2-thiazolidin-3-yl-ethyl)-cyclohexyl]-6,7-dihydro-pyrrolo[3,4-b]pyridin-5-one]: not above 100 nM; `N[C@H](C(=O)N1CCCC1)[C@H]1CC[C@H](N2Cc3nccnc3C2=O)CC1` [Example 46, 6-[trans-4-((1S)-1-amino-2-oxo-2-pyrrolidin-1-yl-ethyl)-cyclohexyl]-6,7-dihydro-pyrrolo[3,4-b]pyrazin-5-one]: not above 100 nM; `CC1(C)COc2cnc(C(=O)N[C@H]3CC[C@H]([C@H](N)C(=O)N4CCC[C@H]4C#N)CC3)cc21` [Example 55, N-(trans-4-{(1S)-1-amino-2-[(2S)-2-cyanopyrrolidin-1-yl]-2-oxoethyl}cyclohexyl)-3,3-dimethyl-2,3-dihydrofuro[2,3-c]pyridine-5-carboxamide]: not above 100 nM. Still for that read-out and setting: next, `CN(CC(=O)N[C@H]1CC[C@H]([C@H](N)C(=O)N2CCC(F)(F)C2)CC1)C(=O)OCc1ccccc1` [Example 30, (S)-({trans-4-[1-amino-2-(3,3-difluoro-pyrrolidin-1-yl)-2-oxo-ethyl]-cyclohexylcarbamoyl}-methyl)-methyl-carbamic acid benzyl ester]: not above 100 nM. As for `N#C[C@@H]1CCCN1C(=O)[C@@H](N)[C@H]1CC[C@H](NC(=O)c2nccnc2N)CC1` [Example 36, 3-amino-pyrazine-2-carboxylic acid {trans-4-[(1S)-1-amino-2-((2S)-2-cyano-pyrrolidin-1-yl)-2-oxo-ethyl]-cyclohexyl}-amide], the IC50 under setting [1] is not above 100 nM. Still for that read-out and setting: next, `N[C@H](C(=O)N1CCCC1)[C@H]1CC[C@H](NC(=O)[C@H]2COCN2C(=O)OCc2ccccc2)CC1` [Example 8, (4R)-4-[trans-4-((1S)-1-amino-2-oxo-2-pyrrolidin-1-yl-ethyl)-cyclohexylcarbamoyl]-oxazolidine-3-carboxylic acid benzyl ester]: 100 to 500 nM; `N#C[C@@H]1CCCN1C(=O)[C@@H](N)[C@H]1CC[C@H](NC(=O)c2cn3cccc3cn2)CC1` [Example 56, N-(trans-4-{(S)-1-amino-2-[(2S)-2-cyanopyrrolidin-1-yl]-2-oxoethyl}cyclohexyl)pyrrolo[1,2-a]pyrazine-3-carboxamide]: not above 100 nM.

Regarding `N[C@H](C(=O)N1CCCC1)[C@H]1CC[C@H](N2C(=O)c3nccnc3C2=O)CC1` [Example 22, 6-[trans-4-((1S)-1-amino-2-oxo-2-pyrrolidin-1-yl-ethyl)-cyclohexyl]-pyrrolo[3,4-b]pyrazine-5,7-dione], under setting [1], the IC50 was not above 100 nM.

As to `N[C@H](C(=O)N1CCCC1)[C@H]1CC[C@@H](NC(=O)CNC(=O)OCc2ccccc2)CC1` [Example 2, {[cis-4-((1S)-1-amino-2-oxo-2-pyrrolidin-1-yl-ethyl)-cyclohexylcarbamoyl]-methyl}-carbamic acid benzyl ester], the IC50 under setting [1] is more than 500 nM.

Consider `Nc1ncccc1C(=O)N[C@H]1CC[C@H]([C@H](N)C(=O)N2CCSC2)CC1` [Example 39, (S)-2-amino-N-[trans-4-(1-amino-2-oxo-2-thiazolidin-3-yl-ethyl)-cyclohexyl]-nicotinamide], for which the IC50 under setting [1] is not above 100 nM. Still for that read-out and setting: next, `N[C@H](C(=O)N1CCCC1)[C@H]1CC[C@H](N2C(=O)c3cccnc3C2=O)CC1` [Example 24, 6-[trans-4-((1S)-1-amino-2-oxo-2-pyrrolidin-1-yl-ethyl)-cyclohexyl]-pyrrolo[3,4-b]pyridine-5,7-dione]: not above 100 nM. Same read-out and setting: next, `N[C@H](C(=O)N1CCCC1)[C@H]1CC[C@H](NC(=O)[C@@H]2C[C@@H](O)CN2C(=O)OCc2ccccc2)CC1` [Example 12, (2S,4R)-2-[trans-4-((1S)-1-amino-2-oxo-2-pyrrolidin-1-yl-ethyl)-cyclohexylcarbamoyl]-4-hydroxy-pyrrolidine-1-carboxylic acid benzyl ester]: not above 100 nM. Turning to `N[C@H](C(=O)N1CCCC1)[C@H]1CC[C@H](NC(=O)[C@@H]2CCC(=O)N2C(=O)OCc2ccccc2)CC1` [Example 14, (2S)-2-[trans-4-(1-(1S)-amino-2-oxo-2-pyrrolidin-1-yl-ethyl)-cyclohexylcarbamoyl]-5-oxo-pyrrolidine-1-carboxylic acid benzyl ester], the IC50 under setting [1] lay in the range of 100 to 500 nM.

Regarding `NC(C(=O)N1CCCC1)C1CCC(NC(=O)C2CC(O)CN2)CC1` [Example 21, (1S,4R)-4-hydroxy-pyrrolidine-2-carboxylic acid [trans-4-((1S)-1-amino-2-oxo-2-pyrrolidin-1-yl-ethyl)-cyclohexyl]-amide], under setting [1], the IC50 is 100 to 500 nM. Same read-out and setting: next, `N[C@H](C(=O)N1CCCC1)[C@H]1CC[C@@H](NC(=O)CNC(=O)c2ccccc2)CC1` [Example 1, N-{[cis-4-((1S)-1-amino-2-oxo-2-pyrrolidin-1-yl-ethyl)-cyclohexylcarbamoyl]-methyl}-benzamide]: more than 500 nM; `Cc1nn(C)c(C(=O)N[C@H]2CC[C@H]([C@H](N)C(=O)N3CCCC3)CC2)c1N` [Example 48, (S)-4-amino-2,5-dimethyl-2H-pyrazole-3-carboxylic acid [trans-4-(1-amino-2-oxo-2-pyrrolidin-1-yl-ethyl)-cyclohexyl]-amide]: not above 100 nM.

Regarding `N[C@H](C(=O)N1CCSC1)[C@H]1CC[C@H](N2Cc3ccccc3S2(=O)=O)CC1` [Example 51, (2S)-2-amino-2-[trans-4-(1,1-dioxo-1,3-dihydro-1λ^6-benzo[d]isothiazol-2-yl)-cyclohexyl]-1-thiazolidin-3-yl-ethanone], the IC50 under setting [1] was not above 100 nM. With `C#Cc1coc2cnc(C(=O)N[C@H]3CC[C@H]([C@H](N)C(=O)N4CCC[C@H]4C#N)CC3)cc12` [Example 62, N-(trans-4-{(S)-1-amino-2-[(2S)-2-cyanopyrrolidin-1-yl]-2-oxoethyl}cyclohexyl)-3-ethynylfuro[2,3-c]pyridine-5-carboxamide], the IC50 under setting [1] is not above 100 nM. Same read-out and setting: next, `N#C[C@@H]1CCCN1C(=O)[C@@H](N)[C@H]1CC[C@H](NC(=O)c2cc3ccoc3cn2)CC1` [Example 58, N-(trans-4-{(1S)-1-amino-2-[(2S)-2-cyanopyrrolidin-1-yl]-2-oxoethyl}cyclohexyl) furo[2,3-c]pyridine-5-carboxamide]: not above 100 nM; `CN(C(=O)OCc1ccccc1)C(C)(C)C(=O)N[C@H]1CC[C@H]([C@H](N)C(=O)N2CCCC2)CC1` [Example 17, (S)-{1-[trans-4-(1-amino-2-oxo-2-pyrrolidin-1-yl-ethyl)-cyclohexylcarbamoyl]-1-methyl-ethyl)-methyl-carbamic acid benzyl ester]: 100 to 500 nM.

The record behind these values is US20050234065A1, “Dipeptidyl peptidase-IV inhibitors” (Pfizer Inc, priority 2004, published 2005).
